Results as given in PubChem BioAssay (NCI).
“And” between values parts separate entries of the source, which are not always exact repeats. Equal entries are not always repeated.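 Where inhibition never reached the appropriate level, the endpoint shown equals the highest concentration tested. Otherwise, values were interpolated linearly from a five-concentration, 48-hour dose response in 96-well plates. GI50 = concentration required for 50% inhibition of growth. TGI: concentration producing complete growth inhibition.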

Tests used:
Test in all cases: NCI tumour cell line growth inhibition, 48 h
[1] = test system: A498 renal
[2] = test system: CAKI-1 renal
[3] = test system: COLO 205 colon
[4] = test system: EKVX NSCLC
[5] = test system: HOP-92 NSCLC
[6] = test system: NCI-H23 lung
[7] = test system: RXF 393 renal
[8] = test system: SK-MEL-5 melanoma
[9] = test system: SW-620 colon
[10] = test system: U251 CNS

| Compound | GI50 [1] | TGI [1] [µM] | GI50 [2] | TGI [2] | GI50 [3] | TGI [3] | GI50 [4] | TGI [4] | GI50 [5] [µM] | TGI [5] | GI50 [6] | TGI [6] | GI50 [7] [µM] | TGI [7] [µM] | GI50 [8] | TGI [8] | GI50 [9] | TGI [9] | GI50 [10] | TGI [10] |
| --- | --- | --- | --- | --- | --- | --- | --- | --- | --- | --- | --- | --- | --- | --- | --- | --- | --- | --- | --- | --- |
| O=C(Nc1ccc(Cl)cc1)Nc1ccc(Nc2nncc3ccccc23)cc1 | 3.79 µM | 18.8 | 1.97 µM | 12.5 µM | 2.77 µM | 9.58 µM | 2.95 µM | 25.3 µM | 2.55 | 7.26 µM | 3.07 µM | 14.4 µM | 4.28 | 21.4 | 2.31 µM | 6.82 µM | 3.16 µM | 18.6 µM | 2.86 µM | 10.3 µM |
| O=C1c2c(O)cccc2C(C2OC(CO)C(O)C(O)C2O)c2cc(CO)cc(O)c21 (stereo unspecified) |  | > 100 |  | > 100 µM |  | > 100 µM |  | > 100 µM |  | > 100 µM |  | > 100 µM |  | > 100 |  | > 100 µM |  | > 100 µM |  | > 100 µM |
| CCOc1cc2ncc(C#N)c(Nc3ccc(OCc4ccccn4)c(Cl)c3)c2cc1NC(=O)/C=C/CN(C)C | 0.124 µM and 0.153 µM |  | 0.0564 µM and 0.146 µM | 12.5 µM and > 9.09 µM | 1.04 µM and 0.598 µM | 24.7 µM and > 5.21 µM | 0.0183 µM and 0.0189 µM | 25.6 µM and > 6.84 µM |  | 22.8 µM and 4.06 µM | 2.63 µM and > 4.56 µM | 22.2 µM and > 10 µM | 0.421 | 2.28 | 1.14 µM and 1.82 µM | 6.21 µM and 4.02 µM | 0.638 µM and 0.53 µM | 2.41 µM and 3.02 µM | 0.899 µM and 1.37 µM | 2.29 µM and > 10 µM |
| COc1ccc2c(c1)C(=O)c1c-2c(N(C)C)nc2ccccc12 | > 100 µM | > 100 |  |  | > 100 µM | > 100 µM | > 100 µM | > 100 µM | 72.6 | > 100 µM | > 100 µM | > 100 µM | > 100 | > 100 | > 100 µM | > 100 µM | > 100 µM | > 100 µM | > 100 µM | > 100 µM |
| C/C=C(\C)C(=O)O[C@H]1C=CC(=O)O[C@@H]1CC[C@H](O)[C@H](C)O | > 100 µM | > 100 | 27.3 µM | 68.4 µM | 30.6 µM | 72.6 µM | 73.9 µM | > 100 µM | 35 | > 87.5 µM | 69.1 µM | > 100 µM | 49.5 | > 88.7 | 25.4 µM | 75.2 µM | 24 µM | 57.6 µM | 55.3 µM | > 100 µM |
| COc1cccc(-n2ncc3c(N/N=C/c4ccncc4)ncnc32)c1 | 0.326 µM |  | 0.769 µM | > 25 µM | 11.5 µM | > 25 µM | > 25 µM | > 25 µM | > 25 | > 25 µM | > 25 µM | > 25 µM | 0.672 | > 25 | 0.799 µM | > 9.75 µM | 5.22 µM | > 25 µM | 1.1 µM | > 25 µM |
| Nc1nc(Nc2ccc(C3CCC(N4CCOCC4)CC3)cc2)nn1-c1ccccn1 (stereo unspecified) | 5 µM | 20.1 | 2.44 µM | > 52.2 µM | 5.17 µM | > 100 µM | 8.21 µM | > 100 µM | 1.59 | > 27.5 µM | 2.61 µM | 47.7 µM | 2.03 | 5.77 | 20.8 µM | > 88.3 µM | 3.4 µM | > 100 µM | 5.05 µM | > 100 µM |
| NC(=S)N/N=C/c1ncccc1N |  | > 73.1 | 0.357 µM | > 38.5 µM | 2.54 µM | 12.1 µM and > 10 µM | 5.13 µM | > 100 µM | > 87.2 | > 100 µM |  | 6.83 µM and > 3.07 µM | 0.489 | > 47.5 | 0.534 µM | 22.3 µM and > 10 µM | 1.45 µM | > 48.4 µM | 0.659 µM | > 100 µM |
| O=CC1CCCc2ccccc21 (stereo unspecified) |  | > 100 |  | > 100 µM |  | > 61.4 µM |  | > 100 µM |  | > 100 µM |  | > 100 µM |  | > 100 |  | > 100 µM |  | > 56.6 µM |  | > 59.4 µM |
| Cc1cc(Cl)ccc1NC(=O)CC/C(CC(=O)C(C)C)=N\NC(=O)C[n+]1ccccc1 |  | > 100 |  | > 100 µM |  | > 100 µM |  | > 100 µM |  | > 100 µM |  | > 100 µM |  | > 100 |  | > 100 µM |  | > 100 µM |  | > 100 µM |
| COc1ccc(OC)c(-c2c(C#N)c(N)nc(N3CCOCC3)c2C#N)c1 | 52.6 µM | > 100 | 43.4 µM | 97 µM | > 100 µM | > 100 µM | > 100 µM | > 100 µM | 82.5 | > 100 µM |  |  | 61.4 | > 100 | > 100 µM | > 100 µM | > 100 µM | > 100 µM | > 100 µM | > 100 µM |
